Key:
[1] = system: TGF-β-induced increases in fibronectin and thrombospondin; details: cited from earlier work
[2] = target: T1, Recombinant human p38α (MKK6-activated) (Homo sapiens, UniProt Q16539); experiment: Time-resolved fluorescence resonance energy transfer (TR-FRET) kinase assay (standard or low volume); format: biochemical; set-up: key: Compounds are considered active in this assay if they demonstrate a pIC50 of greater than 4.6 up to about a pIC50 of greater than 10.0; details: MKK6-activated p38α 100 pM, GST-ATF2 400 nM, 120 minutes at room temperature; either assay format
T1 construct: His; made in house
T1 sequence (Q16539 whole entry): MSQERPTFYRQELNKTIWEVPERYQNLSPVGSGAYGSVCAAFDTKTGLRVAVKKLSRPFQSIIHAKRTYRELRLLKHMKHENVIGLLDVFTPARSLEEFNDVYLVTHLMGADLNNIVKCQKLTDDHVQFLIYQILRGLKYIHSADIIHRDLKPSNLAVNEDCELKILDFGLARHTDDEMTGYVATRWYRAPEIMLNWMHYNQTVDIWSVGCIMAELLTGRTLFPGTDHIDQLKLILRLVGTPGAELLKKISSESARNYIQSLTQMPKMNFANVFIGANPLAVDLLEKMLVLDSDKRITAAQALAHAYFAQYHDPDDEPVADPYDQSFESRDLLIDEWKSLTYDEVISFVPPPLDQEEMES
Experimental: It is noted that there are two assay formats shown above for the Fluorescence anisotropy kinase binding assay. The only difference between these two assays is the volume used and the plate type. […] The results described herein may have been performed in either assay format and are not differentiated as to which. […] TR-FRET Assay Time-Resolved Fluorescence Resonance Energy Transfer Kinase Standard Assay Recombinant human p38α was expressed as a His-tagged protein. To activate this protein, 3 μM unactivated p38α was incubated in 200 mM Hepes pH 7.4, 625 mM NaCl, 1 mM DTT with 27 nM active MKK6 (Upstate), 1 mM ATP and 10 mM MgCl2 The activity of the MKK6-activated p38α was assessed using a time-resolved fluorescence resonance energy transfer (TR-FRET) assay. Biotinylated-GST-ATF2 (residues 19-96, 400 nM final), ATP ([…]) and MgCl2 (5 mM final) in assay buffer (40 mM HEPES pH 7.4, 1 mM DTT) were added to wells containing 1 ul of various concentrations of compound or DMSO vehicle (3% final) in NUNC 384 well black plate. The reaction was initiated by the addition of MKK6-activated p38 (100 pM final) to give a total volume of 30 ul. The reaction was incubated for 120 minutes at room temperature, then terminated by the addition of 15 μl of 100 mM EDTA pH 7.4. Detection reagent (15 μl) in buffer (100 mM HEPES pH 7.4, 150 mM NaCl, 0.1% w/v BSA, 1 mM DTT) containing antiphosphothreonine-ATF2-71 polyclonal antibody (Cell Signalling Technology, Beverly Mass., USA) labelled with W-1024 europium chelate (Wallac OY, Turku, Finland), and APC-labelled streptavidin (Prozyme, San Leandro, Calif., USA) was added and the reaction was further incubated for 60 minutes at room temperature. The degree of phosphorylation of GST-ATF2 was measured using a Packard Discovery plate reader (Perkin-Elmer Life Sciences, Pangbourne, UK) as a ratio of specific 665 nm energy transfer signal to reference europium 620 nm signal. Time-Resolved Fluorescence Resonance Energy Transfer Kinase Low Volume Assay Recombinant human p38α was expressed as a His-tagged protein. To activate this protein, 3 μM unactivated p38α was incubated in 200 mM Hepes pH7.4, 625 mM NaCl, 1 mM DTT with 27 nM active MKK6 (Upstate), 1 mM ATP and 10 mM MgCl2 The activity of the MKK6-activated p38α was assessed using a time-resolved fluorescence resonance energy transfer (TR-FRET) assay. Biotinylated-GST-ATF2 (residues 19-96, 400 nM final), ATP (125 μM final) and MgCl2 ([…]) in assay buffer (40 mM HEPES pH 7.4, 1 mM DTT) were added to wells containing 0.1 μl of various concentrations of compound or DMSO vehicle (1.7% final) in Greiner low volume 384 well black plate. The reaction was initiated by the addition of MKK6-activated p38α (100 pM final) to give a total volume of 6 μl. The reaction was incubated for 120 minutes at room temperature, then terminated by the addition of 3 μl of detection reagent in buffer (100 mM HEPES pH 7.4, 150 mM NaCl, 0.1% w/v BSA, 1 mM DTT, 100 mM EDTA) containing antiphosphothreonine-ATF2-71 polyclonal antibody (Cell Signalling Technology, Beverly Mass., USA) labelled with W-1024 europium chelate (Wallac OY, Turku, Finland), and APC-labelled streptavidin (Prozyme, San Leandro, Calif., USA). The reaction was further incubated for 60 minutes at room temperature. The degree of phosphorylation of GST-ATF2 was measured using a BMG Rubystar plate reader (BMG, UK) as a ratio of specific 665 nm energy transfer signal to reference europium 620 nm signal. It is noted that there are two assay formats shown above for the Time-resolved fluorescence resonance energy transfer kinase assay. The only difference between these two assays is the volume used and the plate type. […] The results described herein may have been performed in either assay format and are not differentiated as to which. […] For purposes herein the HTRF assay and the Fluorescence anisotropy kinase binding assay: […]

[3] = system: synthesis of IL-6, IL-8, GM-CSF, RANTES and COX-2; details: a number of different cell types; cited from earlier work
[4] = system: influx of neutrophils to the lung in LPS-challenged rats; experiment: Rat LPS neutrophilia model; format: in vivo; details: intratracheal, LPS aerosol 100 ug/ml 15 min, lavage 4 hours later, in at least one of the range of conditions tested, significant p<0.05, nonsignificant p>0.05
How it was run: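 Compound was given intratracheally (200 ul, suspension or dry powder) 15 min–24 hours before a 15 min aerosol of LPS (100 ug/ml). Bronchoalveolar lavage was taken 4 hours after challenge for differential cell counts. Values are % inhibition of neutrophils versus no-compound controls at a given concentration and pretreat time.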

| SMILES | melting point [°C] | inhibition of neutrophilia (neutrophil levels in lung lavage relative to no compound controls) [4] | also measured |
| --- | --- | --- | --- |
| COc1nccc(-c2c(-c3ccc(F)cc3)ncn2C2CCNCC2)n1 [SB-242235] |  |  | effect on TGF-β-induced increases in fibronectin and thrombospondin [1]: inhibited |
| Cc1c(F)cc(C(=O)NC2CC2)cc1-c1nc(NC(CO)CO)nc2c1ccc(=O)n2-c1c(F)cccc1F [18(e)] | 214.2 to 217.5 |  | pIC50, reported as active [2]: active |
| C[S+]([O-])c1ccc(-c2nc(-c3ccncc3)c(-c3ccc(F)cc3)[nH]2)cc1 (stereo not shown) [SB-203580] |  |  | decreasing the synthesis of pro-inflammatory proteins including IL-6, IL-8, GM-CSF, RANTES and COX-2 [3]: effective |
| Cc1ccc(C(=O)NC2CC2)cc1-c1nc(NCCN(C)C)nc2c1ccc(=O)n2-c1c(F)cccc1F [Example 25] | 214.7 to 217.5 | statistically nonsignificant inhibition |  |
| CCCNC(=O)c1ccc(C)c(-c2nc(N(C)CCCN(C)C)nc3c2ccc(=O)n3-c2c(F)cccc2F)c1 [Example 104, 3-{8-(2,6-difluorophenyl)-2-[[3-(dimethylamino)propyl](methyl)amino]-7-oxo-7,8-dihydropyrido[2,3-d]pyrimidin-4-yl}-4-methyl-N-propylbenzamide] | 104 to 109 | statistically significant inhibition |  |
| Cc1ccc(NC(=O)c2ccsc2)cc1-c1nc(N2CCC(N)CC2)nc2c1ccc(=O)n2-c1c(F)cccc1F [Example 32, N-{3-[2-(4-amino-1-piperidinyl)-8-(2,6-difluorophenyl)-7-oxo-7,8-dihydropyrido[2,3-d]pyrimidin-4-yl]-4-methylphenyl}-3-thiophenecarboxamide] | 183.8 to 187.9 | statistically nonsignificant inhibition |  |
| Fc1ccc(-c2nc3n(c2-c2ccncc2)CCS3)cc1 [SK&F 86002] |  |  | decreasing the synthesis of pro-inflammatory proteins including IL-6, IL-8, GM-CSF, RANTES and COX-2 [3]: effective |
| CCCNC(=O)c1ccc(C)c(-c2nc(NCCN(C)C)nc3c2ccc(=O)n3-c2c(F)cccc2F)c1 [Example 105, 3-(8-(2,6-difluorophenyl)-2-{[2-(dimethylamino)ethyl]amino}-7-oxo-7,8-dihydropyrido[2,3-d]pyrimidin-4-yl)-4-methyl-N-propylbenzamide] | 139 to 142 | statistically significant inhibition |  |
| CCCNCCNc1nc(-c2cc(C(=O)NC3CC3)ccc2C)c2ccc(=O)n(-c3c(F)cccc3F)c2n1 [Example 24, N-cyclopropyl-3-(8-(2,6-difluorophenyl)-7-oxo-2-{[2-(propylamino)ethyl]amino}-7,8-dihydropyrido[2,3-d]pyrimidin-4-yl)-4-methylbenzamide] | 120 to 134 | statistically nonsignificant inhibition |  |
| CCCNC(=O)c1ccc(C)c(-c2nc(NCCN(C)C(=O)OC(C)(C)C)nc3c2ccc(=O)n3-c2c(F)cccc2F)c1 [Example 106, 1,1-dimethylethyl {2-[(8-(2,6-difluorophenyl)-4-{2-methyl-5-[(propylamino)carbonyl]phenyl}-7-oxo-7,8-dihydro-pyrido[2,3-d]pyrimidin-2-yl)amino]ethyl}methylcarbamate] | 115 to 118 |  |  |
